Our source for the TGI and GI50 values is PubChem BioAssay (NCI).

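Five compound concentrations were applied to cells in 96-well plates for 48 hours; endpoints were derived by simple linear interpolation of the resulting dose-response curve. At the GI50, growth is halved. TGI is the concentration that stops growth completely.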

Common to all, as to assay: inhibition of tumour cell growth, NCI panel, 48 h
The subject of assay [1] is SNB-19 CNS.
Assay [2] deals with SN12C renal.
Assay [3] concerns SK-MEL-2 melanoma.
The subject of assay [4] is SW-620 colon.
Assay [5] relates to SK-MEL-5 melanoma.
Assay [6] has as its system KM12 colon.
The subject of assay [7] is HCT-15 colon.
Assay [8] concerns NCI/ADR-RES ovarian.
Assay [9] has as its system TK-10 renal.
Assay [10] deals with ACHN renal.

Regarding `CN(CCO)CCC1COc2ccccc2O1` (configuration not stated), the TGI in [1], in assay [2], in assay [3], in assay [4], in assay [5] and in assay [6] was > 10 µM each time. Moreover, the TGI in [7], in assay [8], in assay [9] and in assay [10] was > 10 µM each time.

As to `N#C[S-].[Ce+3].c1ccc(-c2ccccn2)nc1.c1ccc(-c2ccccn2)nc1.c1ccc(-c2ccccn2)nc1`, the GI50 was 45.6 µM in assay [1]; 12.8 µM in assay [2]; 25.4 µM in assay [3]; 38.9 µM in assay [4]; 3.78 µM in assay [5]; 38 µM in assay [6]. Besides, the GI50 in [7] is 5.18 µM; in [9] it was 11 µM. The TGI is > 100 µM in assay [1]; > 100 µM in assay [2]; 63.1 µM in [3]; > 100 µM in assay [4]; 20.4 µM in assay [5]; > 100 µM in assay [6]. For the same compound, the TGI in assay [7] was > 100 µM; in assay [9], 97.6 µM.

With `COC1=CC(c2ccc[nH]2)=N/C1=C\c1[nH]c(C)c(CC(=O)NCc2ccccc2)c1C`, the GI50 in assay [3] is 1.71 µM; in assay [5], 1.53 µM; in assay [6], 1.12 µM; in assay [7], 1.06 µM; in [9], 1.75 µM; in [10] it was 1.75 µM. The TGI came out at 3.29 µM in [3]; 2.89 µM in assay [5]; 2.59 µM in [6]; 2.45 µM in assay [7]; 3.24 µM in assay [9]; 3.28 µM in assay [10].

With `COc1nc2ccc(Cl)c(C(O)c3ccccc3)c2nc1OC` (configuration not stated), the TGI in assay [1] is > 100 µM; in [2] it was 40.3 µM; in assay [3] it was 45 µM; in assay [4] it was 82.7 µM; in [5], 30.3 µM; in assay [6] it was > 100 µM. The TGI was 50.1 µM in assay [7], 63.4 µM in assay [8], > 100 µM in [9] and > 100 µM in [10].

`N/C(=C\c1ccc(/C=C(\NC(=O)c2ccccc2)c2nc3c([nH]2)C(=O)c2ccccc2C3=O)cc1)c1nc2c([nH]1)C(=O)c1ccccc1C2=O`: the TGI in assay [1] came out at 28.4 µM; in assay [2], 32.8 µM; in assay [4], 50.5 µM; in assay [5], 31.5 µM; in assay [6] it was 29 µM; in [7], 37.7 µM. Also, the TGI in assay [9] is 51.7 µM; in [10] it was 52.6 µM.

`COC(Cc1cc(C(O)(c2ccc(C(C)(C)C)cc2)c2cc(CC(OC)(c3cc(C(OC)(c4ccc(C(C)(C)C)cc4)c4ccc(C(C)(C)C)cc4)c(C)cc3C)c3cc(C(OC)(c4ccc(C(C)(C)C)cc4)c4ccc(C(C)(C)C)cc4)c(C)cc3C)c(C)cc2C)c(C)cc1C)(c1cc(C(OC)(c2ccc(C(C)(C)C)cc2)c2ccc(C(C)(C)C)cc2)c(C)cc1C)c1cc(C(OC)(c2ccc(C(C)(C)C)cc2)c2ccc(C(C)(C)C)cc2)c(C)cc1C`: the TGI in [1], in [2], in [3], in assay [4], in assay [5] and in assay [7] was > 75 µM in each case. For the same compound, the TGI in assay [8] and in [9] was > 75 µM each time.

With `N#CC1(C#N)C(=O)c2ccncc2C1=O`, the TGI in [1], in assay [2], in [3], in assay [4], in [5] and in assay [6] was > 100 µM throughout. In addition, the TGI in assay [7], in assay [8] and in [10] was > 100 µM each time.

Turning to `COc1cc(/C=C2\C(=O)Nc3ccc(Cl)cc32)cc(OC)c1OC`, the GI50 in [1] was 24.8 µM; in [2], 26.5 µM; in [3] it was 31.9 µM; in [4], 29.9 µM; in assay [5] it was 12.7 µM; in assay [6] it was 4.07 µM. The GI50 in assay [7] is 9.16 µM; in assay [8], 7.29 µM; in assay [9] it was 24 µM; in [10], 23.5 µM. Also, the TGI in [1], in assay [2], in assay [3], in assay [4], in assay [5] and in assay [6] was > 100 µM in each case. Moreover, the TGI in assay [7] is > 100 µM; in [8] it was 59.3 µM; in [9], 78.3 µM; in assay [10] it was > 100 µM.

Consider `CCCC[n+]1ccn(-c2nc3ccccc3n2C)c1`, for which the TGI in assay [1], in assay [2], in assay [3], in assay [4], in [5] and in [7] was > 100 µM each time. Further, the TGI in assay [9] and in [10] was > 100 µM throughout.

In the case of `C/C=C(\C)C(=O)OC1C2C(C)=CC(=O)C(O)C2(C)C2C3(O)OCC24C1OC(=O)C(OC(C)=O)C4C(C)C3O` (configuration not stated), the TGI was 0.468 µM in [2]; 0.073 µM in assay [3]; 0.525 µM in [4]; 0.0375 µM in [6]; 0.328 µM in assay [7]; 31.2 µM in assay [8].
